Consider 1 molecule from EPA's ToxValDB 9.5 (doi:10.2903/j.efsa.2009.310r).

Each structure is given as a SMILES string. ≈ marks a conversion by molar mass, not a printed value. Where “and” joins values, the source holds several entries; their conditions need not be identical. Equal entries are not always repeated.

The test system of one series is Rattus norvegicus. The settings on record: mortality.
For a further series, the system named is Apis mellifera. The settings on record: acute; dermal; mortality.
Another series concerns Folsomia candida. To be noted: chronic/long-term; duration: 28 days.
The test system of the next series is Lepomis macrochirus. The settings on record: acute; duration: 96 hours; mortality.
The subject of series [1] is Anas platyrhynchos. To be noted: oral, mortality; for LD50: acute, unspecified; for LC50: short-term, feed.
The test system of a further series is Phasianus sp. To be noted: acute, oral, unspecified, mortality.
For a further series, the system named is Ceriodaphnia dubia. The settings on record: chronic/long-term; duration: 7 days; reproduction.
The subject of the next series is Hypoaspis aculeifer. To be noted: chronic/long-term; duration: 28 days.
Another series relates to Bibionidae. To be noted: chronic/long-term; duration: 28 days.
The test system of another series is Colinus virginianus. To be noted: acute, oral, mortality; for LC50: diet.
The subject of the next series is Coturnix coturnix. The settings on record: acute, oral, mortality.
For series [2], the system named is Anas platyrhynchos. As to the kind of experiment: LC10; higher = less toxic. To be noted: short-term; duration: 14 days; oral; feed; mortality.

In the case of `CNC(=O)Oc1cccc2c1OC(C)(C)C2` [Carbofuran], the LD50 with Rattus norvegicus (acute, oral) was below 5.6 mg/kg-day; in the series on Apis mellifera it was 0.0357 µg/piece; in the series with Anas platyrhynchos [1] (F), 0.86 mg/kg-day; with Anas platyrhynchos [1], 0.76 mg/kg-day; in the series on Phasianus sp. (F) it was 6.2 mg/kg-day; in the series on Phasianus sp. (M), 4 mg/kg-day. Moreover, the LD50 stood at 8 mg/kg-day with Colinus virginianus (M/F), 3.5 mg/kg-day in the series on Coturnix coturnix (F) and 4.9 mg/kg-day in the series on Coturnix coturnix (M). Also, in the series with Rattus norvegicus (chronic), the no observed adverse effect level (NOAEL) was 0.1 mg/kg-day. For the same molecule, the LC50 was above 50 mg/kg in the series with Tagia sp. (acute, duration: 14 days, mortality); 0.18 µg/mL (≈ 0.814 µM) in the series with Lepomis macrochirus; 10 mg/kg-day and 17 mg/kg-day with Anas platyrhynchos [1] (duration: 5 days); 1.6 mg/kg-day in the series on Anas platyrhynchos [1] (duration: 14 days); 114 mg/kg-day in the series on Colinus virginianus (duration: 5 days); 20.8 mg/kg-day in the series on Colinus virginianus (duration: 7 days). This molecule yielded an LC50 with Colinus virginianus (duration: 14 days) of 15.8 mg/kg-day. In addition, the NOEC in the series with Tagia sp. (chronic/long-term, duration: 56 days) is below 0.84 mg/kg; in the series on Folsomia candida it was 0.21 mg/kg; in the series on Ceriodaphnia dubia it was 0.00016 mg/L; in the series on Hypoaspis aculeifer it was 10.4 mg/kg; in the series on Bibionidae it was 0.0032 mg/L. Besides, the LC10 in the series with Anas platyrhynchos [2] was 0.64 mg/kg-day.

The NOAEL is the highest dose or exposure tested at which no adverse effect was seen.
